Test results: patent US7323303B2, “Modified β-lactamases and uses thereof” (priority 2003, dated 2008)

What was measured:
E166Cf enzyme = biological target: T1, E166Cf enzyme (Bacillus cereus, UniProt P00809, E185C); test: Detection of β-lactam antibiotics in milk by E166Cf fluorescence; settings: untreated milk; E166Cf 1.2×10^−7 M
T1 construct: made in house; host or cells: B. subtilis 1A304 (φ105MU331); then labelled chemically
T1 sequence (P00809 28-306 E185C): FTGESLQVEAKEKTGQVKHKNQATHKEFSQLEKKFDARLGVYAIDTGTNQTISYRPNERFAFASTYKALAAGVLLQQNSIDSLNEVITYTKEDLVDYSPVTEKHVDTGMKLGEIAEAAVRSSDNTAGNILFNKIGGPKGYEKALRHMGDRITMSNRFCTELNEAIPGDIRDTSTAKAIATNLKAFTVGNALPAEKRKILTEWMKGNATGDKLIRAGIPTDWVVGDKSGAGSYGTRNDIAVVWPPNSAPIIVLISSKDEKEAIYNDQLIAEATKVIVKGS
Description: Fluorescence measurements of the E166Cf enzyme in milk in the presence of penicillin G and ampicillin were performed on a FLUOstar microplate reader (BMG Labtechnologies) equipped with two sample injectors. Excitation and emission filters of 485 and 520 nm respectively were used. Milk (pasteurized and homogenized, Nestle Dairy Farm) was purchased at a local supermarket. The labeled enzyme was mixed with the milk sample in a 96-well microtiter plate (Corning Costar). The antibiotics were then added to the mixtures by the injectors.
FIGS. 21 and 22 show the results from the time-resolved fluorescence measurements of the labeled enzyme (1.2×10^−7 M) in untreated milk in the presence of various concentrations of penicillin G and ampicillin respectively.

[1] = biological target: T2, B. cereus penPC β-lactamase (Bacillus cereus, UniProt P00809); test: Drug screening: E166Cf fluorescence in presence of bacterial β-lactamase culture; type: biochemical; set-up: key: −: Decline in fluorescence signal (presence of beta-lactam hydrolysis); +: No decline in fluorescence signal (absence of beta-lactam hydrolysis); settings: antibiotic 1.0×10^−4 M, E166Cf 1.2×10^−7 M
T2 construct: made in house; host or cells: B. subtilis 1A304 (φ105MU331); whole culture used, not purified
Description: (§1) The use of the E166Cf enzyme in screening bacterial β-lactamases against various β-lactam antibiotics was investigated. The principle of our method is that when both E166Cf and bacterial β-lactamase are incubated with ‘β-lactamase-unstable’ antibiotics, the fluorescence of the E166Cf enzyme will be suppressed because of the greater catalytic efficiency of the bacterial enzyme. In contrast, when bacterial β-lactamases are screened against ‘β-lactamase-resistant’ antibiotics, the fluorescence of the E166Cf enzyme will be enhanced because of the poor hydrolytic activity of the bacterial enzyme. Thus, any β-lactam antibiotic that causes the labeled enzyme to increase its fluorescence intensity in the presence of bacterial β-lactamases can be used in clinical treatments.
(§2) The β-lactamase II, penPC β-lactamase and penP β-lactamase were expressed in B. subtilis 1A304 (φ105MU331). These enzymes were prepared according to the procedures described previously (Reference 7: Thomwell, S. J. East, A. K., Errington, J. An efficient expression and secretion system based on Bacillus subtilis phage phi 105 and its uses for the production for B. cereus β-lactamase I. (1993) Gene 133, 47-53) with slight modifications. A bacterial strain was streaked on an agar plate containing 5 μg/ml chloramphenicol, and the plate was incubated at 37° C. for 24 h. A single bacterial colony from the agar plate was inoculated into 100 ml of sterilized BHY medium (37 g/l brain heart infusion and 5 g/l yeast extract) which was then incubated at 37° C. with shaking at 300 rpm overnight. About 7 ml of overnight inoculum was added to a baffled conical flask containing 100 ml of sterilized BHY medium. The inoculated medium was incubated at 37° C. with shaking at 300 rpm. When the optical density of the bacterial culture at 600 nm reached 3.5 to 4.0, the bacterial culture was heated in a water bath at 51° C. for 5 min. Afterwards, the bacterial culture was incubated at 37° C. with shaking at 300 rpm for a further 6 h. The bacterial culture was then harvested and stored at −20° C.
(§3) Fluorescence measurements of the E166Cf enzyme in the presence of bacterial cultures and β-lactam antibiotics were performed on a FLUOstar microplate reader (BMG Labtechnologies) equipped with two sample injectors. Excitation and emission filters of 485 and 520 nm respectively were used. For B. cereus penPC β-lactamase, B. licheniformis penP β-lactamase and B. cereus β-lactamase II, the labeled enzymes were mixed with the bacterial cultures, and the mixtures were made up to 300 μl with 50 mM phosphate buffer (pH 7.0) in a 96-well microtiter plate (Corning Costar). For the purpose of comparison, B. subtilis cultures, which produced no β-lactamase, were set up as negative controls. For E. coli. TEM-1 β-lactamase, the labeled enzymes were mixed with the bacterial cultures without dilution. E. coli. cultures, which produced no β-lactamase, were set up as negative controls for comparison. The antibiotics were then added to the bacterial samples by the injectors.
(§4) The results from the time-resolved fluorescence measurements of the labeled enzyme (1.2×10^−7 M) in the presence of various bacterial cultures and β-lactam antibiotics (1.0×10^−4 M) are shown in FIGS. 23 to 26.

B. cereus β-lactamase II = biological target: T3, B. cereus β-lactamase II (Bacillus cereus, UniProt P04190); test: as above; type: biochemical; set-up: key: −: Decline in fluorescence signal (presence of beta-lactam hydrolysis); +: No decline in fluorescence signal (absence of beta-lactam hydrolysis); settings: antibiotic 1.0×10^−4 M, E166Cf 1.2×10^−7 M
T3 construct: made in house; host or cells: B. subtilis 1A304 (φ105MU331); whole culture used, not purified
Description: as §1, §2, §3, §4

[2] = biological target: T4, B. licheniformis penP β-lactamase (Bacillus licheniformis, UniProt P00808); test: as above; type: biochemical; set-up: key: −: Decline in fluorescence signal (presence of beta-lactam hydrolysis); +: No decline in fluorescence signal (absence of beta-lactam hydrolysis); settings: antibiotic 1.0×10^−4 M, E166Cf 1.2×10^−7 M
T4 construct: made in house; host or cells: B. subtilis 1A304 (φ105MU331); whole culture used, not purified
Description: as §1, §2, §3, §4

[3] = biological target: T5, E. coli TEM-1 β-lactamase (Escherichia coli, UniProt P62593); test: as above; type: biochemical; set-up: key: −: Decline in fluorescence signal (presence of beta-lactam hydrolysis); +: No decline in fluorescence signal (absence of beta-lactam hydrolysis); settings: E. coli TEM-1 culture, undiluted; antibiotic 1.0×10^−4 M; E166Cf 1.2×10^−7 M
T5 construct: made in house; host or cells: E. coli BL21(DE3); whole overnight culture used undiluted, not purified
Description: as §1
The TEM-1 β-lactamase was expressed in E. coli. BL21(DE3). Preparation of the TEM-1 β-lactamase was performed as follows. A bacterial strain was streaked on an agar plate containing 100 μg/ml ampicillin, and the plate was incubated at 37° C. for 24 h. A single bacterial colony from the plate was inoculated into 100 ml of sterilized LB broth (28 g/l) which was then incubated at 37° C. with shaking at 280 rpm overnight. After overnight incubation, the bacterial culture was harvested and stored at −20° C.
as §3, §4

T2 sequence (P00809 28-306): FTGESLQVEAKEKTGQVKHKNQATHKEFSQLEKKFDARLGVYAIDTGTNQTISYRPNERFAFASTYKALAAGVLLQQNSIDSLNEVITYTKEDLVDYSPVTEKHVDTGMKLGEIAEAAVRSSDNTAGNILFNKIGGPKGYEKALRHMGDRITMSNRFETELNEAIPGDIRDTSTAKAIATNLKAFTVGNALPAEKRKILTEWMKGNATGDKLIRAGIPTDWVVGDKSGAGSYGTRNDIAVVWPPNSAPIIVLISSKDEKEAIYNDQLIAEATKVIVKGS
T3 sequence (P04190 31-257): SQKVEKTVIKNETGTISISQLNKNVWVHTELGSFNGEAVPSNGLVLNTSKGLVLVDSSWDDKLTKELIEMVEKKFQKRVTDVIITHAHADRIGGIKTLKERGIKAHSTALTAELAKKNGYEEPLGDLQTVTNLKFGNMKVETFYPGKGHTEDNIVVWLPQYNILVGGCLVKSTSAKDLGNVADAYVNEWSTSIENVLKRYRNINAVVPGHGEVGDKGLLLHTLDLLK
T5 sequence (P62593 24-286 limits assumed): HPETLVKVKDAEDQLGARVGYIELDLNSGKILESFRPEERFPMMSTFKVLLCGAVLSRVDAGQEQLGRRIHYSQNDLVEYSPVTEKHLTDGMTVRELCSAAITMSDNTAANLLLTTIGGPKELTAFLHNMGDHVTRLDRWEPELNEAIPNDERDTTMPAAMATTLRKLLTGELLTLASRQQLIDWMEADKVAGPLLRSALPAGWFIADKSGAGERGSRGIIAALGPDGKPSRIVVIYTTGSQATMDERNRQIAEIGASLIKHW
T4 sequence (P00808 27-307): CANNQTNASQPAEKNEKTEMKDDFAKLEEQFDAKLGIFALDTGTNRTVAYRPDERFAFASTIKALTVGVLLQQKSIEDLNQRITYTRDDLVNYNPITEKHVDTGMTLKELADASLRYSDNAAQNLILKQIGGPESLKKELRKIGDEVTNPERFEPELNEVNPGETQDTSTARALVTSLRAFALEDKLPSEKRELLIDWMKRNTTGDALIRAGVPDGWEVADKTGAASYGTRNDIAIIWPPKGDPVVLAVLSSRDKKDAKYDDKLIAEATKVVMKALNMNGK

CC1(C)S[C@@H]2[C@H](NC(=O)Cc3ccccc3)C(=O)N2[C@H]1C(=O)O [Penicillin G, penicillin G]
lowest concentration detected by the labeled enzyme (E166Cf enzyme): 10^−6 M | fluorescence signal of E166Cf (beta-lactam hydrolysis) [1]: − | fluorescence signal of E166Cf (beta-lactam hydrolysis) (B. cereus β-lactamase II): − | fluorescence signal of E166Cf (beta-lactam hydrolysis) [2]: − | fluorescence signal of E166Cf (beta-lactam hydrolysis) [3]: −
